Where a SMILES comes first, the peptide text is derived from it. The star is where a group is joined. Biotin = O=C1N[C@H]2[C@H](CS[C@H]2CCCCC(=O)*)N1
Tests used:
various growth factors = experiment: Further binding studies: preference of binding for various growth factors; conditions: latter 3 growth factors: no detectable binding
Procedure: Since GDFs are also considered as members of the BMP family of proteins, and therefore share significant amino acid sequence homology, some binding cross-reactivity of peptides according to the presently disclosed subject matter with BMP-5 was noted. […] Further binding studies were performed from which was determined the preference of binding of peptides according to the presently disclosed subject matter for various growth factors. […] Thus peptides according to the presently disclosed subject matter show preferential binding to GDF-7, and show binding affinity for fibrous connective tissue-inducing growth factors.

[1] = Binding of surface-binding peptide to suture material; conditions: braided polyethylene terephthalate fibers
Source text: To illustrate this embodiment, a linker was used to couple a peptide having binding affinity for a surface of an implant with a peptide having binding affinity for fibrous connective tissue-inducing growth factor. […] Similarly, peptides having amino acid sequences of SEQ ID NOs: 1-3 were used individually as representative peptides having binding affinity for fibrous connective tissue-inducing growth factor, and for inclusion as a component in a composition according to the presently disclosed subject matter.

GDF-7 = target: T1, GDF-7 (Mus musculus, UniProt P43029); experiment: GDF-7 binding by composition immobilized on polyethylene terephthalate suture; conditions: 0.5 μM of the conjugate, relative to assay background
T1 construct: purchased R&D SYSTEMS
T1 sequence (P43029 316-461): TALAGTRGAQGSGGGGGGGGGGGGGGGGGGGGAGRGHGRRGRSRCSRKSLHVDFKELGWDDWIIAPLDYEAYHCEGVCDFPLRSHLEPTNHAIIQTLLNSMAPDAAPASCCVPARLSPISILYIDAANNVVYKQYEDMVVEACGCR
Source text: Using standard methods for peptide synthesis, amino acid sequences comprising SEQ ID NO:1-3 and SEQ ID NO: 67 were synthesized to contain an amino acid linker sequence (e.g., GSSGK, SEQ ID NO:72) at the C-terminus to which was linked biotin (via the lysine residue). See, for example, SEQ ID NOs: 73-76. Streptavidin (having 4 biotin binding sites) was used in conjunction with the biotin on the biotinylated peptides to form a linker between the two different peptide components. […]
Each of the three representative compositions according to the presently disclosed subject matter or the control conjugate were added individually to respective wells containing a suture and containing GDF-7 in various concentrations (starting at 100 nM final concentration for the compositions; 0.5 μM of the conjugate) with high salt buffer-T, and incubated for 1 hour at room temperature. […] It was determined in these experiments that maximal growth factor binding to the composition occurs within the first several minutes (e.g., within a time period ranging from 5 to 10 minutes), and that no additional GDF-7 appears to be retained to the surface of the implant in a time period of up to 1 hour of contact with the implant.

Row | Compound | preference for binding affinity (from highest relative binding affinity to lowest) (various growth factors) | further results
1 | CC[C@H](C)[C@H](NC(=O)[C@H](CCC(=O)O)NC(=O)[C@H](CCCNC(=N)N)NC(=O)[C@@H]1CCCN1C(=O)CNC(=O)[C@H](CO)NC(=O)[C@@H](N)CO)C(=O)N[C@@H](Cc1c[nH]c2ccccc12)C(=O)N[C@@H](CC(=O)O)C(=O)N[C@@H](CO)C(=O)N[C@@H](CC(C)C)C(=O)N[C@H](C(=O)NCC(=O)N[C@H](C(=O)N[C@H](C(=O)N[C@@H](CC(N)=O)C(=O)N1CCC[C@H]1C(=O)NCC(=O)N[C@@H](Cc1c[nH]c2ccccc12)C(=O)N[C@@H](CO)C(=O)N[C@@H](CCCNC(=N)N)C(=O)NCC(=O)N[C@@H](CO)C(=O)N[C@@H](CO)C(=O)NCC(=O)N[C@@H](CCCCNC(=O)CCCC[C@@H]1SC[C@@H]2NC(=O)N[C@@H]21)C(N)=O)C(C)C)C(C)C)C(C)C [SEQ ID NO: 1, ssGPREIWDSLVGVVNPGWsr] (H-SSGPREIWDSLVGVVNPGWSRGSSGK(Biotin)-NH2; N-terminus and C-terminus assumed) | GDF-7>GDF-5, BMP-2>BMP-6>BMP-5>TGF-β1, TGF-β3, or PDGF-BB | 
2 | CC(C)C[C@H](NC(=O)[C@H](C)NC(=O)[C@H](Cc1c[nH]c2ccccc12)NC(=O)CNC(=O)CNC(=O)[C@@H](NC(=O)CNC(=O)CNC(=O)[C@H](CO)NC(=O)[C@@H](N)CO)C(C)C)C(=O)N[C@@H](Cc1ccccc1)C(=O)N[C@@H](CCC(=O)O)C(=O)N[C@H](C(=O)N[C@@H](CC(C)C)C(=O)N[C@@H](CCCNC(=N)N)C(=O)NCC(=O)N[C@@H](CCCCN)C(=O)N[C@@H](CCC(=O)O)C(=O)N[C@H](C(=O)N[C@@H](CO)C(=O)N[C@@H](CCCNC(=N)N)C(=O)NCC(=O)N[C@@H](CO)C(=O)N[C@@H](CO)C(=O)NCC(=O)N[C@@H](CCCCNC(=O)CCCC[C@@H]1SC[C@@H]2NC(=O)N[C@@H]21)C(N)=O)C(C)C)[C@@H](C)O [SEQ ID NO: 2, ssGGVGGWALFETLRGKEVsr] (H-SSGGVGGWALFETLRGKEVSRGSSGK(Biotin)-NH2; N-terminus and C-terminus assumed) | GDF-7>GDF-5, BMP-2, and BMP-6>BMP-5>TGF-β1, TGF-β3, or PDGF-BB | 
3 | CSCC[C@H](NC(=O)CNC(=O)[C@H](CCC(=O)O)NC(=O)[C@H](Cc1c[nH]c2ccccc12)NC(=O)[C@H](CO)NC(=O)[C@H](CCCNC(=N)N)NC(=O)[C@H](CC(C)C)NC(=O)[C@H](C)NC(=O)[C@H](Cc1c[nH]c2ccccc12)NC(=O)[C@H](CCC(=O)O)NC(=O)[C@H](C)NC(=O)[C@@H](NC(=O)[C@H](CO)NC(=O)[C@@H](N)CO)C(C)C)C(=O)N[C@@H](CCCNC(=N)N)C(=O)N[C@H](C(=O)NCC(=O)N[C@@H](CCC(=O)O)C(=O)N[C@@H](C)C(=O)N[C@@H](CO)C(=O)N[C@@H](CCCNC(=N)N)C(=O)NCC(=O)N[C@@H](CO)C(=O)N[C@@H](CO)C(=O)NCC(=O)N[C@@H](CCCCNC(=O)CCCC[C@@H]1SC[C@@H]2NC(=O)N[C@@H]21)C(N)=O)C(C)C [SEQ ID NO: 3, ssVAEWALRSWEGMRVGEAsr] (H-SSVAEWALRSWEGMRVGEASRGSSGK(Biotin)-NH2; N-terminus and C-terminus assumed) | GDF-7>GDF-5, BMP-2>BMP-6>BMP-5>TGF-β1, TGF-β3, or PDGF-BB | 
4 | SWWGFWNGSAAPVWSR [SEQ ID NO: 67] |  | binding affinity for suture material [1]: showed binding affinity
5 | peptide conjugate: negative control: biotinylated surface-binding peptide bound to streptavidin, without peptide having binding affinity for growth factor |  | binding for GDF-7 on suture (GDF-7): no appreciable binding
